Several values for one entry are separate records, joined by “and”; a condition that tells them apart may be missing. Equal values may be shown once. Read-outs that look alike come from different tables or passages of the source.
How the values were obtained:
SARS-CoV PLpro = SARS-CoV PLpro (Severe acute respiratory syndrome coronavirus, UniProt P0C6X7); assay: biochemical; design: inhibition of SARS-CoV PLpro, UbRh dose-response replicate value: unit: %
[1] = system: SARS-CoV-2 clinical isolate VIC001; assay: microbe, parasite or virus in culture; type: cell-based; details: Severe acute respiratory syndrome coronavirus 2, Vero, read-out: Antiviral EC50 (plaque assay)
SARS-CoV-2 PLpro [2] = target: T1, SARS-CoV-2 PLpro (Severe acute respiratory syndrome coronavirus 2, UniProt P0DTD1); assay: biochemical; type: binding
SARS-CoV-2 PLpro [3] = target: T1, SARS-CoV-2 PLpro; assay: biochemical; design: inhibition of SARS-CoV-2 PLpro, UbRh dose-response replicate value: unit: %; details: for IC50: IC50 (UbRh) SARS-CoV-2 PLpro
ATXN3 = ATXN3 (Homo sapiens, UniProt P54252); type: biochemical
ATXN3, sequence (P54252 whole entry): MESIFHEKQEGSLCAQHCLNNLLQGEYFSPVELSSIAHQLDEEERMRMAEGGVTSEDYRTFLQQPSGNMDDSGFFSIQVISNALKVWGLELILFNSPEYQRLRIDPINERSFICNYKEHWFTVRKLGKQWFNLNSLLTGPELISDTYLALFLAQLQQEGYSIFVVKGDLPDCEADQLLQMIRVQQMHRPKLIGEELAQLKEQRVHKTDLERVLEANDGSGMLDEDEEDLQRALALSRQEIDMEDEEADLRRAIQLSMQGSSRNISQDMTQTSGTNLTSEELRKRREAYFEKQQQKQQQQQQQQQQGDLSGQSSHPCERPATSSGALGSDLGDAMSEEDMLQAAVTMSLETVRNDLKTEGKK

UCHL3 = UCHL3 (Homo sapiens, UniProt P15374); type: biochemical
UCHL3, sequence (P15374 whole entry): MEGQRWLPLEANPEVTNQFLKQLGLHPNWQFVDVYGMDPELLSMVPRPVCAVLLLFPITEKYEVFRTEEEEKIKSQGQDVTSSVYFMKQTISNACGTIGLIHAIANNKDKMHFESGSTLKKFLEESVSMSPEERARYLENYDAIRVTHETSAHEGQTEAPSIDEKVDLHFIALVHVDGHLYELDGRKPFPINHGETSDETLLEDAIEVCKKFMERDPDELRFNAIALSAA

SARS-CoV-2 PLpro [4] = target: T1, SARS-CoV-2 PLpro; assay: cell-based; type: cell-based
MERS-CoV PLpro = MERS-CoV PLpro (Middle East respiratory syndrome-related coronavirus, UniProt K9N7C7); type: biochemical; design: unit: %
MERS-CoV PLpro, sequence (K9N7C7 1482-1803 limits assumed): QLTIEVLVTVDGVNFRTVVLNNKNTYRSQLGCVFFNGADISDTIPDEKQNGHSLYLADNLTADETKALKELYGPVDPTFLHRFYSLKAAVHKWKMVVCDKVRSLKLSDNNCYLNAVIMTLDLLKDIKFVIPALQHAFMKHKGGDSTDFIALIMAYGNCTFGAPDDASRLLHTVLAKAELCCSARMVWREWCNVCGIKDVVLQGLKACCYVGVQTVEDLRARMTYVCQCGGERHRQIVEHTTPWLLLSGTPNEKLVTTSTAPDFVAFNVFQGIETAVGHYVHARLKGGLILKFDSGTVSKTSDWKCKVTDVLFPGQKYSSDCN

SARS-CoV-2 PLpro [5] = target: T1, SARS-CoV-2 PLpro
USP21 = USP21 (Homo sapiens, UniProt Q9UK80); type: biochemical
USP21, sequence (Q9UK80 whole entry): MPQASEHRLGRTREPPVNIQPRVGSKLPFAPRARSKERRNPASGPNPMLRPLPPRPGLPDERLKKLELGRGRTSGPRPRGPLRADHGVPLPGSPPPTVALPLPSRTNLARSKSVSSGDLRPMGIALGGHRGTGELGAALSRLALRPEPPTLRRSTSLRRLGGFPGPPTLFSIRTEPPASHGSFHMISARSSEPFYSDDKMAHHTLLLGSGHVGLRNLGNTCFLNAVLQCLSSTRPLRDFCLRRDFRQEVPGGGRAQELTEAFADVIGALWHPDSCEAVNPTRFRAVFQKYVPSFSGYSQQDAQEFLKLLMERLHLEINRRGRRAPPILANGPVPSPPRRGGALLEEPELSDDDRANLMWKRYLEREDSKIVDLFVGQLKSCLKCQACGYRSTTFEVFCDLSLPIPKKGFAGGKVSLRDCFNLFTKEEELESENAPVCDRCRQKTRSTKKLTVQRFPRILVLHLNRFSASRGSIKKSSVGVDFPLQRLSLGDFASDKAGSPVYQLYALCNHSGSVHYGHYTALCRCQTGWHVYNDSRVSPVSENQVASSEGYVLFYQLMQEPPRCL

USP10 = USP10 (Homo sapiens, UniProt Q14694); type: biochemical
USP10, sequence (Q14694 whole entry): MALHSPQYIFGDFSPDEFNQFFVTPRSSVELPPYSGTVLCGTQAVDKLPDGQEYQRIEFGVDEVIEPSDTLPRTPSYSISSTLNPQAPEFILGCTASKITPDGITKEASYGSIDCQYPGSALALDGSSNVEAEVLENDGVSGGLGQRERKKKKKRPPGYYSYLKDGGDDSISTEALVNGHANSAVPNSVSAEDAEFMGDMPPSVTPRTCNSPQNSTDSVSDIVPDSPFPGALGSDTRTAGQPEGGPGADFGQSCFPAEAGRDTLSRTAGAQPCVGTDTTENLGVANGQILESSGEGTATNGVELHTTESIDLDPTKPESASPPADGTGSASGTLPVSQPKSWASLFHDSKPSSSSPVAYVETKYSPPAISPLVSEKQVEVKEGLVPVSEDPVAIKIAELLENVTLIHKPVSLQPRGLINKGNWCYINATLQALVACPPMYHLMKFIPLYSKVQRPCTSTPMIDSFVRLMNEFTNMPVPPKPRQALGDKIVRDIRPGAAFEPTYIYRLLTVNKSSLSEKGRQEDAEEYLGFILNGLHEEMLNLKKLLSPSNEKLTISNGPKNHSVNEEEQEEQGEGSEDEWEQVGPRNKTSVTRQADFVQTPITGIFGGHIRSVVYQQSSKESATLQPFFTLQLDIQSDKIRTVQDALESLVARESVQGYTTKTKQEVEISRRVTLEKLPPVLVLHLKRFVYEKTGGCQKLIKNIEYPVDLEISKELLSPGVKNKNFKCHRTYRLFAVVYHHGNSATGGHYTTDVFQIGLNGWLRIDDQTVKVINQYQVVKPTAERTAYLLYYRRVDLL

[6] = system: panel of human DUBs (ATXN3, Cezanne, OTUD1, USP10, USP21, UCHL3); type: biochemical
Cezanne = Cezanne (Homo sapiens, UniProt Q6GQQ9); type: biochemical
Cezanne, sequence (Q6GQQ9 whole entry): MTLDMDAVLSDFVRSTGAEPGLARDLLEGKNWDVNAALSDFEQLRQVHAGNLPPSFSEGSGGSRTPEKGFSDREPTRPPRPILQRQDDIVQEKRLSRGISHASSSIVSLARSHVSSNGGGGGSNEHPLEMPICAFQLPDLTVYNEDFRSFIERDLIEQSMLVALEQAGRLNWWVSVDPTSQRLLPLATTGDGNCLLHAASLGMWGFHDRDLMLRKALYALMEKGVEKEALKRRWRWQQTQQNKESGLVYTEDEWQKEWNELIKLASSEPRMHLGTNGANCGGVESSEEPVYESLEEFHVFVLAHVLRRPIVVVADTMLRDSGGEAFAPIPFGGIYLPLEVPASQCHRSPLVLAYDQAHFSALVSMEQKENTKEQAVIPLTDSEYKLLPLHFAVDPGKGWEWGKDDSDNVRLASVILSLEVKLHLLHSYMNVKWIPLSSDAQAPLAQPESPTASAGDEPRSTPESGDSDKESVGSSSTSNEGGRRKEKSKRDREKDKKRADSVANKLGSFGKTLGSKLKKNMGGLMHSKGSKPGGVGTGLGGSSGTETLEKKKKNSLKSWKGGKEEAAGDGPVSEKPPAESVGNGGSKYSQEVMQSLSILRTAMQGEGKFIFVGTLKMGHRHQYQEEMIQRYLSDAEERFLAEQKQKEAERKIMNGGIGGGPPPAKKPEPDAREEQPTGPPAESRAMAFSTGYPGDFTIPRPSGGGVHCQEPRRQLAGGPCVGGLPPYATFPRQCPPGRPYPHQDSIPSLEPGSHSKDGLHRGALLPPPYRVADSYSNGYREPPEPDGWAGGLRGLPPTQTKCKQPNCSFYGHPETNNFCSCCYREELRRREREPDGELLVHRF

OTUD1 = OTUD1 (Homo sapiens, UniProt Q5VV17); type: biochemical
OTUD1, sequence (Q5VV17 whole entry): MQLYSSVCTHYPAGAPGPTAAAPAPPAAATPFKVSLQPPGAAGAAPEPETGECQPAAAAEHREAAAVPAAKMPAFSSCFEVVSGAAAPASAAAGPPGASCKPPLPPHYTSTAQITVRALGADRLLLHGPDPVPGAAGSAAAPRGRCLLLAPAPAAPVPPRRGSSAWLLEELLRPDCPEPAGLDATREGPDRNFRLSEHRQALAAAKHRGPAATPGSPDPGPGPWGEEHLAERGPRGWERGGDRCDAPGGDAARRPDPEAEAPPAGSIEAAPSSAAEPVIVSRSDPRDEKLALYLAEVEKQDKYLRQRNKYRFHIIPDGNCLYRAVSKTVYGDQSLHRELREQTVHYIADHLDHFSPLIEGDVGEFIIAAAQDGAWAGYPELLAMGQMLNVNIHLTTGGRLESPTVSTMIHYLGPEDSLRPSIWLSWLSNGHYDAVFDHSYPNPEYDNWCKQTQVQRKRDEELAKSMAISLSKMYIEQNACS

## COc1ccc2cc(C(=O)C3CCCN(C4CCCC4)C3)ccc2c1 (centres unmarked) [WEHI-P1]
SARS-CoV PLpro; Conc 3.63 µM
  inhibition of SARS-CoV PLpro, UbRh dose-response replicate value: 43.26 and 41.4233 and 40.1519 and 56.4827 and 56.7648 and 53.2219
SARS-CoV PLpro; Conc 3.63 µM, read-out: inhibition of SARS-CoV PLpro, UbRh dose-response replicate value
  inhibition at 3.63 µM: 43.3%
SARS-CoV PLpro; Conc 98 µM
  inhibition of SARS-CoV PLpro, UbRh dose-response replicate value: 89.3568 and 87.1144 and 87.3043 and 96.6611 and 96.2974 and 95.7026 and 96.1294
SARS-CoV PLpro; Conc 98 µM, read-out: inhibition of SARS-CoV PLpro, UbRh dose-response replicate value
  inhibition at 98 µM: 89.2%
SARS-CoV PLpro; read-out: inhibition of SARS-CoV PLpro, UbRh dose-response replicate value
  inhibition at […]: 84.6% and 69.7%
[1]
  EC50: > 2000 nM
SARS-CoV-2 PLpro [2]
  Kd: 8.3 µM
SARS-CoV-2 PLpro [3]; Conc 0.00498 µM
  inhibition of SARS-CoV-2 PLpro, UbRh dose-response replicate value: -13.6732 and 2.3131 and -7.154 and -11.0795 and 7.963 and 4.4501 and -10.0607 and -6.545 and -6.343 and -0.9072 and -6.992 and -7.263 and -7.665
SARS-CoV-2 PLpro [3]; Conc 0.0149 µM
  inhibition of SARS-CoV-2 PLpro, UbRh dose-response replicate value: -0.6879 and 3.256 and -8.137 and -12.3628 and 2.155 and 5.8571 and -3.891 and -5.469 and -7.734 and -5.926 and -7.3449
SARS-CoV-2 PLpro [3]; Conc 0.0448 µM
  inhibition of SARS-CoV-2 PLpro, UbRh dose-response replicate value: 1.291 and 3.348 and -5.506 and -4.578 and 2.528 and 6.172 and -28.1035 and -26.7808 and -16.0105 and -8.021 and -5.978 and -3.428 and -7.448
SARS-CoV-2 PLpro [3]; Conc 3.63 µM
  inhibition of SARS-CoV-2 PLpro, UbRh dose-response replicate value: 55.1403 and 49.1297 and 72.2398 and 55.1118 and 68.8818 and 68.3038 and 70.3435 and 68.1584 and 58.3924 and 61.1283 and 62.8891 and 58.2582 and 68.987
SARS-CoV-2 PLpro [3]; Conc 98 µM
  inhibition of SARS-CoV-2 PLpro, UbRh dose-response replicate value: 124.948 and 118.973 and 118.719 and 93.4483 and 92.6536 and 95.3254 and 94.6236 and 97.9546 and 83.9689 and 107.904 and 110.814 and 103.242 and 108.864
SARS-CoV-2 PLpro [3]
  IC50: 2600 nM
SARS-CoV-2 PLpro [3]; Supplementary Fig. 2b
  IC50: 2600 nM
ATXN3
  inhibition of ATXN3, UbRh dose-response replicate value: -8.641 and -11.1993 and -4.869 and 4.344 and -19.3823 and -18.001 and -0.7368 and -2.308 and -5.209 and -10.7506 and -7.279 and -8.7353 and -8.48 and -12.1184 and -9.5356 and 0.5603 and -15.7867 and -11.4036 and -7.524
ATXN3; Conc 0.00498 µM
  inhibition of ATXN3, UbRh dose-response replicate value: -12.0566 and -16.4021 and -4.426 and -13.5708
ATXN3; Conc 0.0149 µM
  inhibition of ATXN3, UbRh dose-response replicate value: -11.0193 and -9.528 and -12.1815 and -14.805
ATXN3; Conc 0.0448 µM
  inhibition of ATXN3, UbRh dose-response replicate value: -8.047 and -9.745 and -7.569 and -8.486
ATXN3; Conc 3.63 µM
  inhibition of ATXN3, UbRh dose-response replicate value: -16.703 and -12.2662 and -13.9462 and -9.635
ATXN3; Conc 98 µM
  inhibition of ATXN3, UbRh dose-response replicate value: -16.0742 and -15.5502
UCHL3
  inhibition of UCHL3, UbRh dose-response replicate value: -15.7962 and -10.6437 and -3.089 and -8.07 and -1.79 and -9.314 and -4.512 and -11.432 and -8.325 and -0.3429 and -5.346 and 2.661 and -3.761 and -0.9211 and -0.1651 and 0.1836 and -9.635 and -0.5542 and -7.392
UCHL3; Conc 0.00498 µM
  inhibition of UCHL3, UbRh dose-response replicate value: -2.717 and -5.843 and -1.232 and -3.133
UCHL3; Conc 0.0149 µM
  inhibition of UCHL3, UbRh dose-response replicate value: -3.556 and -7.101 and -2.8889 and -5.9018
UCHL3; Conc 0.0448 µM
  inhibition of UCHL3, UbRh dose-response replicate value: -13.5671 and -9.936 and 2.559 and -5.235
UCHL3; Conc 3.63 µM
  inhibition of UCHL3, UbRh dose-response replicate value: -2.824 and -12.2743 and -7.514 and -7.892
UCHL3; Conc 98 µM
  inhibition of UCHL3, UbRh dose-response replicate value: -24.2494 and -16.3148 and -12.8948 and -13.0616
SARS-CoV-2 PLpro [4]
  EC50: > 20 µM
MERS-CoV PLpro; Conc 0.00498 µM
  inhibition of MERS-CoV PLpro, UbRh dose-response replicate value: -4.614 and -3.364 and 0.3636 and -5.453 and 6.667 and 6.005 and 3.997 and 2.909
MERS-CoV PLpro; Conc 0.0149 µM
  inhibition of MERS-CoV PLpro, UbRh dose-response replicate value: -3.576 and -5.738 and -4.053 and -6.88 and 8.95 and 6.88 and 9.641 and 2.2309
MERS-CoV PLpro; Conc 0.0448 µM
  inhibition of MERS-CoV PLpro, UbRh dose-response replicate value: -7.082 and -11.2097 and -12.434 and -8.665 and 6.324 and 5.9119 and 5.395 and 2.288
MERS-CoV PLpro; Conc 3.63 µM
  inhibition of MERS-CoV PLpro, UbRh dose-response replicate value: -1.223 and -11.7007 and -12.14 and -8.237 and 5.5159 and 6.719
MERS-CoV PLpro; Conc 98 µM
  inhibition of MERS-CoV PLpro, UbRh dose-response replicate value: -14.4158 and -18.412 and -13.4114 and -9.9342 and 9.6505 and 10.1326 and 6.766 and 4.38
SARS-CoV-2 PLpro [5]
  Molar Mass (kDa): 32.7945 kDa and 33.2145 kDa and 33.2745 kDa
  observed molar mass of PLpro (SEC-MALS): 34.9 kDa
USP21
  inhibition of USP21, UbRh dose-response replicate value: -17.3591 and -12.2032 and -18.6472 and -15.4853 and -14.4522 and -19.2052 and -17.9515 and -18.065 and -8.946 and -2.6161 and -10.7527 and -20.9333 and -7.844 and -9.819 and -13.8068 and -21.9255 and -4.154 and -2.302 and -19.2663 and -19.4961
USP21; Conc 0.00498 µM
  inhibition of USP21, UbRh dose-response replicate value: -6.669 and -13.4551 and -20.5516 and -18.4137
USP21; Conc 0.0149 µM
  inhibition of USP21, UbRh dose-response replicate value: -7.696 and -8.6697 and -11.755 and -9.346
USP21; Conc 0.0448 µM
  inhibition of USP21, UbRh dose-response replicate value: -2.649 and -22.6918 and -12.9296
USP21; Conc 3.63 µM
  inhibition of USP21, UbRh dose-response replicate value: -16.692 and -5.223 and -23.134 and -16.0626
USP21; Conc 98 µM
  inhibition of USP21, UbRh dose-response replicate value: -13.9863 and -21.5031 and -20.8818 and -12.5688
USP10
  inhibition of USP10, UbRh dose-response replicate value: -17.9764 and -33.546 and -1.777 and -1.005 and -2.268 and -5.196 and 1.437 and 7.331 and 6.946 and -2.385 and 10.5944 and 12.4488 and -3.943 and -14.76 and 8.848 and 13.2594 and -3.1801
USP10; Conc 0.00498 µM
  inhibition of USP10, UbRh dose-response replicate value: 10.1443 and 12.7446 and 2.857 and 1.607
USP10; Conc 0.0149 µM
  inhibition of USP10, UbRh dose-response replicate value: 1.87 and 11.8374 and 1.723 and 2.761
USP10; Conc 0.0448 µM
  inhibition of USP10, UbRh dose-response replicate value: 5.874 and 6.2633 and -3.914
USP10; Conc 3.63 µM
  inhibition of USP10, UbRh dose-response replicate value: -1.745 and -4.256 and -2.239 and 0.7005
USP10; Conc 98 µM
  inhibition of USP10, UbRh dose-response replicate value: -22.6046 and 5.737 and 3.4
[6]
  cross-reactivity in a panel of human DUBs: no cross-reactivity
Cezanne
  inhibition of Cezanne, UbRh dose-response replicate value: -18.912 and -15.6278 and -2.351 and 1.9841 and -10.3668 and -26.3356 and -4.177 and -7.241 and -8.329 and -15.5113 and -9.927 and -0.3728 and -12.3899 and 0.2487 and -4.422 and -3.858 and -10.5494 and -3.083 and 1.0161 and -4.6404
Cezanne; Conc 0.00498 µM
  inhibition of Cezanne, UbRh dose-response replicate value: -5.218 and -11.645 and -1.408 and -0.02766
Cezanne; Conc 0.0149 µM
  inhibition of Cezanne, UbRh dose-response replicate value: -1.15 and -11.2131 and -3.066 and -2.486
Cezanne; Conc 0.0448 µM
  inhibition of Cezanne, UbRh dose-response replicate value: -8.614 and -15.6484 and -3.285 and 0.7467
Cezanne; Conc 3.63 µM
  inhibition of Cezanne, UbRh dose-response replicate value: -15.9321 and -15.0246 and -5.238 and -9.8
Cezanne; Conc 98 µM
  inhibition of Cezanne, UbRh dose-response replicate value: -30.6124 and -29.2216 and 3.466 and 11.4705
OTUD1
  inhibition of OTUD1, UbRh dose-response replicate value: -10.6037 and -11.2887 and -9.792 and -7.833 and -12.7647 and -0.9075 and 2.163 and -5.7654 and -7.285 and -0.8912 and -5.258 and -7.97 and -1.274 and -2.017 and -4.922 and 1.155 and -8.198 and 3.097 and -7.799 and -6.802
OTUD1; Conc 0.00498 µM
  inhibition of OTUD1, UbRh dose-response replicate value: -2.098 and -3.857
OTUD1; Conc 0.0149 µM
  inhibition of OTUD1, UbRh dose-response replicate value: 0.5359 and 5.168 and -4.672 and 0.608
OTUD1; Conc 0.0448 µM
  inhibition of OTUD1, UbRh dose-response replicate value: 0.07106 and -1.381 and -0.3944 and -8.021
OTUD1; Conc 3.63 µM
  inhibition of OTUD1, UbRh dose-response replicate value: -3.7862 and -2.718 and -1.038 and -8.072
OTUD1; Conc 98 µM
  inhibition of OTUD1, UbRh dose-response replicate value: -27.4599 and -27.4028
